Measured values reported in US12544375B2, “Small molecule therapeutic for parkinson's disease paired with a biomarker of therapeutic activity” (The Board of Trustees of the Leland Stanford Junior …, priority 2019, dated 2026).

How the values were obtained:
OPA1 = OPA1 level in fibroblasts, Western blotting; assay type: cell-based, human; conditions: FIG. 2D
Method: (§1) FIG. 2A-FIG. 2F. Miro1 Reducer Eliminates the Miro1 Defect in PD Fibroblasts. (FIG. 2A) Chemical properties of Miro1 Reducer. (FIG. 2B) Wild-type flies (w^1118) were fed with DMSO alone (0 μM Miro1 Reducer) or Miro1 Reducer in DMSO at 250 μM for 7 days, and lysed and blotted as indicated. The band intensities are normalized to those of Tubulin from the same blots. n=4. (FIG. 2C-FIG. 2E) Fibroblasts were treated, lysed, and blotted as indicated. (FIG. 2C) Band intensities are normalized to those of GAPDH from the same blots and compared to “Healthy-1, no treatment” except otherwise indicated. n=4. (FIG. 2D) Band intensities are normalized to those of ATP5β from the same blots and expressed as a percentage of the mean of “0 μM Miro1 Reducer with CCCP”. Mean±S.E.M is shown. n=3. (FIG. 2E) Band intensities are normalized to those of GAPDH from the same blots and compared to “Healthy-1, no CCCP, no MG132” except otherwise indicated. n=4. (FIG. 2F) Healthy-1 and PD-2 fibroblasts were transfected as indicated, and immunostained with anti-Myc (Miro1, green) and stained with Dapi (blue). The Miro1 intensity is normalized to that of mito-dsRed from the same cell and quantified across 37-62 cells from 5 fields each transfection, 3 independent transfections. Scale bars: 50 μm. For (FIG. 2C-FIG. 2F), both CCCP and Miro1 Reducer were dissolved in DMSO. […]

fibroblasts = experiment: Cytotoxicity: mitochondrial matrix and cytosolic proteins in fibroblasts with CCCP; assay type: cell-based, human; conditions: combined with CCCP treatment for 6 hrs
Method: as §1

Structure (SMILES): O=C(Nc1ccc(Nc2cc(-n3ccnc3)ncn2)cc1)Nc1cccc(F)c1 [Miro1 Reducer]
- IMM dynamin GTPase OPA1 level (OPA1): not reduced
- concentrations impacting multiple mitochondrial matrix and cytosolic proteins, indicating cytotoxicity (fibroblasts): > 25 µM
